Patent publication US8586505B2 (SDS Biotech K. K., priority 2009, dated 2013)
Read-outs that look alike come from different tables or passages of the source.

How the values were obtained:
Format in all cases: in vivo
[1] = tested on: Pseudoperonospora cubensis; experiment: Test of examining control effect on Pseudoperonospora cubensis (potted cucumber plants); conditions: 96 h, 10% wettable powder adjusted to 125 ppm, 15 ml/pot sprayed on potted cucumber plants one day before spray inoculation, assessed after 1 day wet chamber and 3 days greenhouse, read-out: Determination of control effect (preventive value) on Pseudoperonospora cubensis
Summary of the method: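 Cucumber plants (Sagamihanjiro, 2.5-leaf stage) sprayed with 125 ppm compound solution from 10% wettable powder, 15 ml/pot. One day later, spray-inoculated with P. cubensis conidia (1.0×10^4 cells/ml), kept 1 day at 21° C wet, then 3 days in greenhouse. Preventive value derived from lesion area relative to untreated plants.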

[2] = tested on: Sphaerotheca fuliginea; experiment: Test of examining control effect on Sphaerotheca fuliginea (potted cucumber plants); conditions: Podosphaera fuliginea, 336 h, 10% wettable powder adjusted to 125 ppm, 15 ml/pot sprayed on potted cucumber plants one day before spray inoculation, assessed after 14 days in greenhouse, read-out: Determination of control effect (preventive value) on Sphaerotheca fuliginea
Summary of the method: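 Cucumber plants (Sagamihanjiro, 2nd leaf stage) sprayed with 125 ppm compound (from 10% wettable powder), inoculated one day later with S. fuliginea conidia (1.0×10^5 cells/ml); lesion area scored after 14 days in greenhouse. Preventive value vs untreated; ≥60% high, <60% low control.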

[3] = tested on: Phytophthora infestans; experiment: whole plant or invertebrate; conditions: in Solanum lycopersicum, 96 h, read-out: Determination of control effect (preventive value)

| SMILES | pest or weed control at 125 µg/mL [1] | pest or weed control at 125 µg/mL [2] | pest or weed control at 125 ppm [3] | pest or weed control at 125 µg/mL ([1]; in Cucumis sativus) | pest or weed control at 125 µg/mL ([2]; in Cucumis sativus) |
| --- | --- | --- | --- | --- | --- |
| Cc1ccc(C#CCCNc2ncnc3ccccc23)s1 [compound 206] | 60 to 100% | 0 to 60% | 60 to 100% |  |  |
| COCc1ccccc1C#CCCNc1ncnc2ccc(SC)cc12 [compound 332] | 60 to 100% | 0 to 60% | 0 to 60% |  |  |
| CC(CC#Cc1ccc(Cl)c(C(F)(F)F)c1)Nc1ncnc2sccc12 (stereo not drawn) [compound 254] | 60 to 100% | 0 to 60% | 0 to 60% |  |  |
| FC(F)(F)c1ccccc1C#CCCNc1ncnc2ccc(Cl)cc12 [compound 309] | 60 to 100% | 60 to 100% | 0 to 60% |  |  |
| COCc1ccccc1C#CCCNc1ncnc2ccc(Br)cc12 [compound 321] | 60 to 100% | 60 to 100% | 0 to 60% |  |  |
| COCc1ccccc1C#CCC(C)Nc1ncnc2ccccc12 (stereo not drawn) [compound 278] | 60 to 100% | 60 to 100% | 60 to 100% |  |  |
| CC(F)c1ncnc(NCCC#Cc2ccccc2)c1I (stereo not drawn) [compound 374] | 60 to 100% | 60 to 100% | 0 to 60% |  |  |
| C(#Cc1csc(Oc2ccccc2)n1)CCNc1ncnc2ccccc12 [compound 227] | 60 to 100% | 60 to 100% | 60 to 100% |  |  |
| CCc1ccccc1C#CCCNc1ncnc2ccccc12 [compound 103] | 60 to 100% | 60 to 100% | 60 to 100% |  |  |
| Cn1cc(C#CCCNc2ncnc3ccccc23)ccc1=O [compound 203] | 60 to 100% | 0 to 60% | 0 to 60% |  |  |
| COc1ccc2nc(C#CCCNc3ncnc4sccc34)sc2c1 [compound 85] | 60 to 100% | 60 to 100% | 60 to 100% |  |  |
| CCC(CC#Cc1ccc(F)cc1C(F)(F)F)Nc1ncnc2ccccc12 (stereo not drawn) [compound 295] | 60 to 100% | 60 to 100% | 0 to 60% |  |  |
| CCOCc1ccccc1C#CCCNc1ncnc2ccccc12 [compound 153] | 60 to 100% | 0 to 60% | 60 to 100% |  |  |
| Fc1ccc(C#CCCNc2ncnc3ccccc23)c(C(F)(F)F)c1 [compound 169] | 60 to 100% | 60 to 100% | 60 to 100% |  |  |
| Cc1c(Cl)ncnc1NCCC#Cc1ccccc1C(F)(F)F [compound 364] | 60 to 100% | 60 to 100% | 0 to 60% |  |  |
| COc1ccc(C#CCC(C)Nc2ncnc3ccccc23)c(C(F)(F)F)c1 (stereo not drawn) [compound 287] | 60 to 100% | 60 to 100% | 0 to 60% |  |  |
| Clc1ncnc(NCCC#Cc2ccccc2)c1-c1ccccc1 [compound 373] | 0 to 60% | 0 to 60% | 0 to 60% |  |  |
| FCc1nc(C#CCCNc2ncnc3sccc23)cs1 [compound 68] | 60 to 100% | 60 to 100% | 60 to 100% |  |  |
| FC(F)(F)c1ccccc1C#CCCNc1ncnc(Cl)c1Br [compound 367] | 60 to 100% | 60 to 100% | 0 to 60% |  |  |
| COCc1ccccc1C#CCCNc1ncnc2cc(Cl)ccc12 [compound 312] | 60 to 100% | 60 to 100% | 0 to 60% |  |  |
| CC(CC#Cc1ccccc1S(C)(=O)=O)Nc1ncnc2ccccc12 (stereo not drawn) [compound 290] | 60 to 100% | 60 to 100% | 60 to 100% |  |  |
| CC(CC#Cc1csc(Oc2ccccc2)n1)Nc1ncnc2ccccc12 (stereo not drawn) [compound 293] | 60 to 100% | 60 to 100% | 60 to 100% |  |  |
| CC(CC#Cc1ccc(Cl)cc1C(F)(F)F)Nc1ncnc2ccc(F)cc12 (stereo not drawn) [compound 345] | 60 to 100% | 60 to 100% | 0 to 60% |  |  |
| FC(F)(F)c1ccccc1C#CCCNc1ncnc2sccc12 [compound 25] | 60 to 100% | 60 to 100% | 60 to 100% |  |  |

| SMILES | pest or weed control at 125 µg/mL [1] | pest or weed control at 125 µg/mL [2] | pest or weed control at 125 ppm [3] | pest or weed control at 125 µg/mL ([1]; in Cucumis sativus) | pest or weed control at 125 µg/mL ([2]; in Cucumis sativus) |
| --- | --- | --- | --- | --- | --- |
| CCOC(OCC)c1ccc(C#CCCNc2ncnc3ccccc23)cc1 [compound 151] | 60 to 100% | 60 to 100% | 60 to 100% |  |  |
| Fc1cccc(C#CCCNc2ncnc3sccc23)c1 [compound 12] | 60 to 100% | 60 to 100% | 0 to 60% |  |  |
| COCc1ccccc1C#CCCNc1ncnc2c(C)cc(Cl)cc12 [compound 327] | 60 to 100% | 0 to 60% | 0 to 60% |  |  |
| COCc1ccc(F)cc1C#CCCNc1ncnc2ccccc12 [compound 142] | 60 to 100% | 60 to 100% | 60 to 100% |  |  |
| CC(CC#Cc1ccccc1)Nc1ncnc(C(C)F)c1I (stereo not drawn) [compound 381] | 60 to 100% | 60 to 100% | 60 to 100% |  |  |
| Cc1ccc(F)cc1C#CCCNc1ncnc2ccccc12 [compound 167] | 60 to 100% | 60 to 100% | 0 to 60% |  |  |
| COCc1ccccc1C#CCCNc1ncnc2ccc(OCC#Cc3ccccc3)cc12 [compound 339] | 60 to 100% | 0 to 60% | 0 to 60% |  |  |
| C(#Cc1ccccc1-c1ccccc1)CCNc1ncnc2ccccc12 [compound 114] | 60 to 100% | 60 to 100% | 0 to 60% |  |  |
| CC(CC#Cc1ccc(C(F)(C(F)(F)F)C(F)(F)F)cc1Cl)Nc1ncnc2ccccc12 (stereo not drawn) [compound 281] | 60 to 100% | 60 to 100% | 0 to 60% |  |  |
| Fc1ccccc1C#CCCNc1ncnc2sccc12 [compound 11] | 60 to 100% | 60 to 100% | 60 to 100% |  |  |
| CC[Si](C#CCCNc1ncnc2sccc12)(CC)CC [compound 3] | 60 to 100% | 60 to 100% | 0 to 60% |  |  |
| CNC(=O)C(CC#Cc1ccccc1)Nc1ncnc2ccccc12 (stereo not drawn) [compound 305] |  |  | 0 to 60% | 60 to 100% | 0 to 60% |
| Fc1ccccc1Oc1nc(C#CCCNc2ncnc3ccccc23)cs1 [compound 224] | 60 to 100% | 60 to 100% | 60 to 100% |  |  |
| CC(CC#Cc1ccc(C(F)(F)F)cc1C(F)(F)F)Nc1ncnc2ccccc12 (stereo not drawn) [compound 280] | 60 to 100% | 0 to 60% | 0 to 60% |  |  |
| CC(CC#Cc1cccc(C(F)(F)F)c1)Nc1ncnc2sccc12 (stereo not drawn) [compound 234] | 60 to 100% | 60 to 100% | 0 to 60% |  |  |
| C(#Cc1csc(-c2cccs2)n1)CCNc1ncnc2sccc12 [compound 79] | 60 to 100% | 60 to 100% | 0 to 60% |  |  |
| Ic1ccc(C#CCCNc2ncnc3ccccc23)cc1 [compound 98] | 60 to 100% | 60 to 100% | 0 to 60% |  |  |
| CCOC(=O)C(CC#Cc1ccccc1)Nc1ncnc2ccccc12 (stereo not drawn) [compound 303] |  |  | 0 to 60% | 60 to 100% | 0 to 60% |
| CC(CC#Cc1ccccc1C(F)(F)F)Nc1ncnc2c(F)cccc12 (stereo not drawn) [compound 343] | 60 to 100% | 60 to 100% | 60 to 100% |  |  |
| C[Si](C)(C)c1ccc(C#CCCNc2ncnc3ccccc23)cc1 [compound 111] | 60 to 100% | 60 to 100% | 0 to 60% |  |  |
| COCc1ccccc1C#CCCNc1ncnc2cccc(Cl)c12 [compound 314] | 60 to 100% | 60 to 100% | 0 to 60% |  |  |
| C(#Cc1csc(Cc2ccccc2)n1)CCNc1ncnc2sccc12 [compound 75, 4-[4-(2-Benzylthiazol-4-yl)-3-butynylamino]thieno[2,3-d]pyrimidine] | 60 to 100% | 60 to 100% | 60 to 100% |  |  |
| Clc1cc(C#CCCNc2ncnc3ccccc23)ccn1 [compound 196] | 60 to 100% | 60 to 100% | 0 to 60% |  |  |
| C(#Cc1ccccc1C1OCCO1)CCNc1ncnc2ccccc12 [compound 155] | 60 to 100% | 0 to 60% | 0 to 60% |  |  |
